Among the data in patent US8426437B2, “Pyrroloquinoline derivatives and their use as protein kinases inhibitors” (Pierre Fabre Medicament, priority 2005, dated 2013) are IC50 values, retold here.

Where a name gives a salt, the structure may show the parent alone.

The target of the assay is T1, RET (Homo sapiens, UniProt P07949).
T1 construct: purchased Upstate 14-570MG
T1 sequence (P07949 29-1114): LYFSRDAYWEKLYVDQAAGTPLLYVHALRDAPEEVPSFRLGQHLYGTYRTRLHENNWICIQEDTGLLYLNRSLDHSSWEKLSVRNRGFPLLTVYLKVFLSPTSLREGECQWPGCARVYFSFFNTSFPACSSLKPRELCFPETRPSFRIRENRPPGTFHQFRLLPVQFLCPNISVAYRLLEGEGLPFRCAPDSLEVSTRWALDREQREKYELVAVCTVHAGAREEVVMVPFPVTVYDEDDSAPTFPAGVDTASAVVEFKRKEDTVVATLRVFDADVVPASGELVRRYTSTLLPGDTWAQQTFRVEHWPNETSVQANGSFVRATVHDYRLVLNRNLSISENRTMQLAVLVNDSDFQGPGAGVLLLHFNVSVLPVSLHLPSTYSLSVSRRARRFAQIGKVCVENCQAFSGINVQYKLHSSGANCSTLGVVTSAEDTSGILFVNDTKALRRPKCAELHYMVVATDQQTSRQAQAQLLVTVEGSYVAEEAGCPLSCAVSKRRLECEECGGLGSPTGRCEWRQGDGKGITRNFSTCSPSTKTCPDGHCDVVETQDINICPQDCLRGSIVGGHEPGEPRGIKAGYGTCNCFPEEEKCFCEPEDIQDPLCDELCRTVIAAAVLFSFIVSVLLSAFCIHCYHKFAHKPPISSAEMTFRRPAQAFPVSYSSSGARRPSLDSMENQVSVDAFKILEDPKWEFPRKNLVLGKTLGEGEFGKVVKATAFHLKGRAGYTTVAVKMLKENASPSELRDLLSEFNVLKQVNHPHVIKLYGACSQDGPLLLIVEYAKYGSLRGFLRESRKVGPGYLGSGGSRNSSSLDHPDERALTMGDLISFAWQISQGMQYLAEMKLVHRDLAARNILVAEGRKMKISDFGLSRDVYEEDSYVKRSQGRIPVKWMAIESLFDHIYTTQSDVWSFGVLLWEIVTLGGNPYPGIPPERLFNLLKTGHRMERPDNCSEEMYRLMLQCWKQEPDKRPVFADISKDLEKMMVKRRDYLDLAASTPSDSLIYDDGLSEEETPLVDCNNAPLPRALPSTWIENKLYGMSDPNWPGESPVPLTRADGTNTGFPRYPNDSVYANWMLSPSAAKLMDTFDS
In words: Inhibition of RET kinase activity, recombinant RET method (Kinase-Glo). Type of assay: biochemical. Conditions: RET 2 μg/ml, poly-EY4 substrate, 20 μM ATP, two hours at 30° C. In short, it runs like this: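 Recombinant RET at 2 μg/ml in 20 mM MOPS/NaOH pH 7.0, 1 mM EDTA, 5% glycerol, 0.01% Brij35, 0.1% 2-mercaptoethanol, 1 mg/ml BSA; compounds 10 nM–30 μM final.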
Regarding `CCCOC(=O)c1c[nH]c2c(=O)[nH]c3ccc(S(=O)(=O)N(CCNC(C)C)C4CC4)cc3c12` [Compound 142, 8-[Cyclopropyl-(2-isopropylamino-ethyl)-sulfamoyl]-4-oxo-4,5-dihydro-3H-pyrrolo[2,3-c]quinoline-1-propyl carboxylate hydrochloride], the half-maximal inhibitory concentration (IC50) fell in the range of 100 to 1000 nM.

For `CCOC(=O)c1c[nH]c2c(=O)[nH]c3ccc(S(=O)(=O)Nc4cccc(F)c4C)cc3c12` [Compound 16, 8-(3-Fluoro-2-methyl-phenylsulfamoyl)-4-oxo-4,5-dihydro-3H-pyrrolo[2,3-c]quinoline-1-ethyl carboxylate], the concentration for half-maximal inhibition (IC50) was less than 100 nM.

With `CCCOC(=O)c1c[nH]c2c(=O)[nH]c3ccc(S(=O)(=O)N(CCO)CCO)cc3c12` [Compound 176, 8-[bis-(2-Hydroxy-ethyl)-sulfamoyl]-4-oxo-4,5-dihydro-3H-pyrrolo[2,3-c]quinoline-1-propyl carboxylate], the IC50 was 100 to 1000 nM.

For the compound `CN(C)CCCNC(=O)c1c[nH]c2c(=O)[nH]c3ccccc3c12` [Compound 80, N-(3-Dimethylamino-propyl)-4-oxo-4,5-dihydro-3H-pyrrolo[2,3-c]quinoline-1-carboxamide], the half-maximal inhibitory concentration (IC50) fell in the range of 10000 to 100000 nM.

Turning to `CCCOC(=O)c1c[nH]c2c(=O)[nH]c3ccc(S(=O)(=O)N(C)CC(=O)O)cc3c12` [Compound 182, 8-(Carboxymethyl-methyl-sulfamoyl)-4-oxo-4,5-dihydro-3H-pyrrolo[2,3-c]quinoline-1-propyl carboxylate], the IC50 fell in the range of 1000 to 10000 nM.

Regarding `C#CCN(CCN(C)C(=O)OC(C)(C)C)S(=O)(=O)c1ccc2[nH]c(=O)c3[nH]cc(C(=O)OCCC)c3c2c1` [Compound 157, 8-{[2-(tert-Butoxycarbonyl-methyl-amino)-ethyl]-prop-2-ynyl-sulfamoyl}-4-oxo-4,5-dihydro-3H-pyrrolo[2,3-c]quinoline-1-propyl carboxylate], the half-maximal inhibitory concentration (IC50) was less than 100 nM.

For `CCCOC(=O)c1c[nH]c2c(=O)[nH]c3cc(F)c(S(=O)(=O)N(C)C)cc3c12` [Compound 186, 8-Dimethylsulfamoyl-7-fluoro-4-oxo-4,5-dihydro-3H-pyrrolo[2,3-c]quinoline-1-propyl carboxylate], the concentration for half-maximal inhibition (IC50) was 100 to 1000 nM.

For the compound `CCOC(=O)c1c[nH]c2c(=O)[nH]c3ccc(C#CC(C)(C)O)cc3c12` [Compound 204, 8-(3-Hydroxy-3-methyl-but-1-ynyl)-4-oxo-4,5-dihydro-3H-pyrrolo[2,3-c]quinoline-1-ethyl carboxylate], the half-maximal inhibitory concentration (IC50) lay in the range of 100 to 1000 nM.

As to `CN1CCC(NS(=O)(=O)c2ccc3[nH]c(=O)c4[nH]cc(C(=O)OC5CCCC5)c4c3c2)CC1` [Compound 119, 8-(q-Methyl-piperidin-4-ylsulfamoyl)-4-oxo-4,5-dihydro-3H-pyrrolo[2,3-c]quinoline-1-cyclopentyl carboxylate], the IC50 was 100 to 1000 nM.

`CCCN(C)C(=O)c1c[nH]c2c(=O)[nH]c3ccc(S(=O)(=O)N(C)C)cc3c12` [Compound 110, N-Methyl-N-propyl-8-dimethylsulfamoyl-4-oxo-4,5-dihydro-3H-pyrrolo[2,3-c]quinoline-1-carboxamide]: the IC50 fell in the range of 10000 to 100000 nM.

With `CN(c1ccc(F)cc1)S(=O)(=O)c1ccc2[nH]c(=O)c3[nH]cc(C(=O)OCCNC(=O)OC(C)(C)C)c3c2c1` [Compound 106, 2-tert-Butoxycarbonylaminoethyl 8-[(4-fluorophenyl)-methyl-sulfamoyl]-4-oxo-4,5-dihydro-3H-pyrrolo[2,3-c]quinoline-1-carboxylate], the IC50 was in the range of 10000 to 100000 nM.

As for `CCCOC(=O)c1c[nH]c2c(=O)[nH]c3ccc(S(=O)(=O)N(C)CCN4CCCC4)cc3c12` [Compound 137, 8-[Methyl-(2-pyrrolidin-1-yl-ethyl)-sulfamoyl]-4-oxo-4,5-dihydro-3H-pyrrolo[2,3-c]quinoline-1-propyl carboxylate], the IC50 lay within 100 to 1000 nM.

Turning to `CCCOC(=O)c1c[nH]c2c(=O)[nH]c3ccc(S(=O)(=O)NC4CC4)cc3c12` [Compound 124, 8-Cyclopropylsulfamoyl-4-oxo-4,5-dihydro-3H-pyrrolo[2,3-c]quinoline-1-propyl carboxylate], the half-maximal inhibitory concentration (IC50) lay within 100 to 1000 nM.

As for `C#CCN(CCNC(C)C)S(=O)(=O)c1ccc2[nH]c(=O)c3[nH]cc(C(=O)OCCC)c3c2c1` [Compound 158, 8-[(2-isopropylamino-ethyl)-prop-2-ynyl-sulfamoyl]-4-oxo-4,5-dihydro-3H-pyrrolo[2,3-c]quinoline-1-propyl carboxylate hydrochloride], the IC50 fell in the range of 100 to 1000 nM.

Turning to `CCOC(=O)c1c[nH]c2c(=O)[nH]c3cc(Cl)c(-c4cccc(S(C)(=O)=O)c4)cc3c12` [Compound 257, 7-Chloro-8-(3-methanesulfonyl-phenyl)-4-oxo-4,5-dihydro-3H-pyrrolo[2,3-c]quinoline-1-ethyl carboxylate], the IC50 lay in the range of 100 to 1000 nM.

Take `CCOC(=O)c1c[nH]c2c(=O)[nH]c3ccc(NS(=O)(=O)c4cccc(OC)c4)cc3c12` [Compound 51, 8-(3-Methoxy-benzenesulfonylamino)-4-oxo-4,5-dihydro-3H-pyrrolo[2,3-c]quinoline-1-ethyl carboxylate]: the IC50 is 1000 to 10000 nM.

For `COC(=O)c1c[nH]c2c(=O)[nH]c3ccc(S(=O)(=O)NC4CCCC4)cc3c12` [Compound 92, 8-Cyclopentylsulfamoyl-4-oxo-4,5-dihydro-3H-pyrrolo[2,3-c]quinoline-1-methyl carboxylate], the IC50 is 1000 to 10000 nM.

For the compound `CCOC(=O)c1c[nH]c2c(=O)[nH]c3ccc(Sc4ccc(NC(C)=O)cc4)cc3c12` [Compound 223, 8-(4-Acetylaminophenylsulfanyl)-4-oxo-4,5-dihydro-3H-pyrrolo[2,3-c]quinoline-1-ethyl carboxylate], the 50% inhibitory concentration (IC50) was 100 to 1000 nM.

On to `CCOC(=O)c1c[nH]c2c(=O)[nH]c3ccc(-c4csc(-c5ccccc5)n4)cc3c12` [Compound 279, 4-Oxo-8-(2-phenyl-thiazol-4-yl)-4,5-dihydro-3H-pyrrolo[2,3-c]quinoline-1-ethyl carboxylate], for which the 50% inhibitory concentration (IC50) lay in the range of 1000 to 10000 nM.

In the case of `CCOC(=O)c1c[nH]c2c(=O)[nH]c3ccc(C(=O)c4ccccc4)cc3c12` [Compound 102, 8-Benzoyl-4-oxo-4,5-dihydro-3H-pyrrolo[2,3-c]quinoline-1-ethyl carboxylate], the half-inhibitory concentration (IC50) fell in the range of 1000 to 10000 nM.

Regarding `O=C(NCc1ccncc1)c1c[nH]c2c(=O)[nH]c3ccccc3c12` [Compound 86, N-(Pyridin-4-ylmethyl)-4-oxo-4,5-dihydro-3H-pyrrolo[2,3-c]quinoline-1-carboxamide], the IC50 fell in the range of 10000 to 100000 nM.

On to `O=C(NCCCO)c1c[nH]c2c(=O)[nH]c3ccccc3c12` [Compound 85, N-(3-Hydroxy-propyl)-4-oxo-4,5-dihydro-3H-pyrrolo[2,3-c]quinoline-1-carboxamide], for which the IC50 was in the range of 10000 to 100000 nM.

With `CCOC(=O)/C=C/c1ccc2[nH]c(=O)c3[nH]cc(C(=O)OCC)c3c2c1` [Compound 65, 8-(2-Ethoxycarbonyl-vinyl)-4-oxo-4,5-dihydro-3H-pyrrolo[2,3-c]quinoline-1-ethyl carboxylate], the half-maximal inhibitory concentration (IC50) was in the range of 1000 to 10000 nM.

Take `COC(=O)CCNC(=O)c1c[nH]c2c(=O)[nH]c3ccccc3c12` [Compound 81, 3-[(4-Oxo-4,5-dihydro-3H-pyrrolo[2,3-c]quinoline-1-carbonyl)-amino]-methyl propanoate]: the concentration for half-maximal inhibition (IC50) is 10000 to 100000 nM.

As to `CCOC(=O)c1c[nH]c2c(=O)[nH]c3ccc(C#C[Si](C)(C)C)cc3c12` [Compound 200, 4-Oxo-8-trimethylsilanylethynyl-4,5-dihydro-3H-pyrrolo[2,3-c]quinoline-1-ethyl carboxylate], the 50% inhibitory concentration (IC50) was in the range of 1000 to 10000 nM.

As to `CCOC(=O)c1c[nH]c2c(=O)[nH]c3ccc(S(=O)(=O)C4CCCCC4)cc3c12` [Compound 197, 8-Cyclohexanesulfonyl-4-oxo-4,5-dihydro-3H-pyrrolo[2,3-c]quinoline-1-ethyl carboxylate], the IC50 fell in the range of 100 to 1000 nM.

On to `CCOC(=O)c1c[nH]c2c(=O)[nH]c3ccc(S(=O)(=O)Cc4c(Cl)cccc4Cl)cc3c12` [Compound 36, 8-(2,6-Dichlorophenylmethanesulfonyl)-4-oxo-4,5-dihydro-3H-pyrrolo[2,3-c]quinoline-1-ethyl carboxylate], for which the half-maximal inhibitory concentration (IC50) fell in the range of 100 to 1000 nM.

In the case of `CCOC(=O)c1c[nH]c2c(=O)[nH]c3ccc(/C=C/C(=O)NCCC(=O)OC)cc3c12` [Compound 69, 8-[2-(2-Methoxycarbonyl-ethylcarbamoyl)-vinyl]-4-oxo-4,5-dihydro-3H-pyrrolo[2,3-c]quinoline-1-ethyl carboxylate], the 50% inhibitory concentration (IC50) lay in the range of 1000 to 10000 nM.

Take `CCOC(=O)c1c[nH]c2c(=O)[nH]c3ccc(-c4ccc(OC)cc4)cc3c12` [Compound 246, 8-(4-Methoxy-phenyl)-4-oxo-4,5-dihydro-3H-pyrrolo[2,3-c]quinoline-1-ethyl carboxylate]: the half-maximal inhibitory concentration (IC50) was in the range of 1000 to 10000 nM.

Regarding `COC(=O)c1c[nH]c2c(=O)[nH]c3ccc(S(=O)(=O)NN4CCN(C)CC4)cc3c12` [Compound 193, 8-(4-Methyl-piperazin-1-ylsulfamoyl)-4-oxo-4,5-dihydro-3H-pyrrolo[2,3-c]quinoline-1-methyl carboxylate], the concentration for half-maximal inhibition (IC50) lay in the range of 1000 to 10000 nM.

Consider `CCOC(=O)c1c[nH]c2c(=O)[nH]c3ccc(-c4cccc(NC(C)=O)c4)cc3c12` [Compound 236, 8-(3-Acetylaminophenyl)-4-oxo-4,5-dihydro-3H-pyrrolo[2,3-c]quinoline-1-ethyl carboxylate], for which the half-maximal inhibitory concentration (IC50) is 100 to 1000 nM.

As to `CCOC(=O)c1c[nH]c2c(=O)[nH]c3ccc(NC(=O)c4ccccc4)cc3c12` [Compound 60, 8-Benzoylamino-4-oxo-4,5-dihydro-3H-pyrrolo[2,3-c]quinoline-1-ethyl carboxylate], the half-maximal inhibitory concentration (IC50) was 1000 to 10000 nM.

For the compound `CCOC(=O)c1c[nH]c2c(=O)[nH]c3ccc(NS(=O)(=O)c4ccc(Cl)s4)cc3c12` [Compound 57, 8-(5-Chloro-thiophene-2-sulfonylamino)-4-oxo-4,5-dihydro-3H-pyrrolo[2,3-c]quinoline-1-ethyl carboxylate], the IC50 was 100 to 1000 nM.

Regarding `CCCOC(=O)c1c[nH]c2c(=O)[nH]c3cc(OC)c(S(=O)(=O)N(C)C4CC4)cc3c12` [Compound 188], the IC50 was 1000 to 10000 nM.

As usually defined, the IC50 is the concentration that gives 50% inhibition.
